Assay results: US8354395B2, “Method for providing neuroprotection from spinal muscular atrophy” (Trophos, priority 2003, dated 2013)

What was measured:
[1] = tested on: striatal neurons expressing truncated mutated huntingtin; assay: protection of striatal neurons from death induced by overexpression of a mutated form of huntingtin; format: cell-based; conditions: 1 μM in 0.5% DMSO; 7 days; compared with medium supplemented with BDNF
Method: Primary cultures of striatal neurons are prepared as described in the literature (Primary striatal neuronal culture, Mao L. et al., Methods Mol. Med., 2003, 79:379-86). […] A second expression vector containing the DNA coding the green fluorescent protein (GFP) also undergoes electroporation and serves as a reporter gene. The DNA of the plasmid coding the huntingtin was prepared by purification with cesium chloride. The plasmid containing the GFP sequence was prepared on Qiagen columns. The integrity of the DNA sequences is verified by sequencing, transfection and western blotting. The cells which survive the electroporation are inoculated at a density of 4000 cells per well of a 96-well plate. The culture takes place in Neurobasal medium (GIBCO) complimented with pyruvate and B-27 (Beckton Dickinson). The cells are maintained in culture for 7 days without changing the medium.
The treatments with the compounds to be tested are carried out just after the inoculation at a final concentration of 1 μM in 0.5% of dimethyl sulphoxide (DMSO). The positive controls are carried out by the addition of BDNF at 5 ng/ml final. The negative controls only receive 0.5% DMSO.
Cell death is evaluated after the 7 days by counting the number of living cells expressing the GFP.
The activity of the compounds to be tested was evaluated by their capacity to prevent the death of the striatal neurons cultured in the neurobasal medium compared with the survival of the striatal neurons in medium supplemented with BDNF (Brain-Derived Neurotrophic Factor).

[2] = tested on: motor neurons of the nucleus of the facial nerve; assay: axotomy of the facial nerve in new-born rats, count of motor neurons of the facial nucleus; format: in vivo, rat; conditions: axotomized new-born rats; dose between 3 and 100 mg/kg according to the administration route; compared with the nerve which is not sectioned
Method: An axotomy of the facial nerve is performed on new-born young rats of 2-3 days old. The animals receive the cholest-4-en-3-one oxime 4 hours before the unilateral section of the nerve then daily for 5 days by sub-cutaneous route. Seven days after the section of the nerve, the animals are anaesthetized, then fixed by intra-cardial perfusion of paraformaldehyde. The brain is then removed and placed in paraffin. The histological analysis of compound sections of 7 μm of the nucleus of the facial nerve, stained with cresyl violet, allows the number of motor neurons of the intact side as well as of the side of the nerve which has been sectioned to be counted (Casanovas et al., Prevention by lamotrigine, MK-801 and N omega-nitro-L-arginine methyl ester of motoneuron cell death after neonatal axotomy, Neuroscience, 1996, 71, 313-325).

[3] = tested on: GABAA receptors; assay: electrophysiology in vitro with rat neurons (slices of hippocampus on MEA, sensitive neurons in patch clamp); format: cell-based; conditions: for effect on the stimulating GABAA transmission (postsynaptic field potentials, CA1): slices of hippocampus, 20 μM bicuculline, 50 μM picrotoxin, 1-10 μM diazepam, 10-1000 nM steroids
Method: Electrophysiological experiments were carried out in vitro with rat neurons (slices of hippocampus, neurons sensitive in culture), as follows:
The experiments are carried out with hippocampi removed from rats of the Sprague Dawley strain aged from 10 to 21 days. The animals are sacrificed by decapitation, and their brain is rapidly transferred into ACSF (Artificial Cerebro-Spinal Fluid) without sodium (composition: 2 mM KCl, 1.2 mM NaH2PO4, 2 mM MgCl2, 0.5 mM CaCl2, 26 mM NaHCO3, 11 mM glucose, 250 mM saccharose), maintained at a temperature of 4° C. and carbogen (a 95% O2, 5% CO2 mixture) is bubbled through. The hippocampi are extracted from each cerebral hemisphere then cut up into slices of […] thickness using a “tissue chopper”. The slices are left to rest in ACSF medium (composition: 126 mM NaCl, 2 mM KCl, 1.2 mM NaH2PO4, 2 mM MgCl2, 0.5 mM CaCl2, 26 mM NaHCO3, 11 mM glucose) at ambient temperature, at least one hour before recording. Using a pipette, one slice is then deposited on a multi-electrode recording system (MEA, MultiChannel Systems™, Germany) and positioned so as to cover the […]. In order to avoid any change in position by the perfusion flow, a grid weighted down by a platinum <<U>> is positioned on the slice. The MEA is then rapidly inserted into the recording system and the chamber perfused with ACSF with carbogen bubbled through; the middle of the chamber is connected to earth. The perfused ACSF as well as the MEA are maintained at a temperature of 37° C. One of the 60 electrodes is selected as a stimulation electrode. A biphasic stimulation current with an intensity of 300 μA over 0.1 ms is generated from this electrode at a rate of one stimulation every 30 seconds. The responses produced are seen simultaneously at the level of the 59 other electrodes of the MEA. The axons of the Schaeffer collaterals are stimulated in the CA3. In the CA1 region, 6 to 12 electrodes are selected in order to record the field potentials which correspond to the sum of the variations of the postsynaptic potentials of the neurons situated close to each electrode. The molecules tested are dissolved in the ACSF medium (the final concentration of DMSO is ≦0.1%) and carried over onto the slice by means of the perfusion system.
The sensitive rat neurons are cultured for 1 to 2 days and then recorded with the patch clamp technique as described in De Roo M. et al. (Dehydroepiandrosterone potentiates native ionotropic ATP receptors containing the P2X2 subunit in rat sensory neurones, J Physiol, 2003, 552:59-71).

[4] = tested on: rat motor neurons; assay: in vitro model of trophic deprivation of rat motor neurons (survival, calcein fluorescence); format: cell-based; conditions: 3 days in basal medium, compared with medium supplemented with neurotrophic factors, ratio > 0 = positive effect
Method: The spinal cord of E14 rat embryos is dissected and the ventral part is isolated by trituration after trypsination. […] The cells are centrifuged on a density gradient. The motor neurons are enriched in the fraction of the large cells (the least dense). The cells of this fraction are incubated with an anti-p75 antibody, a surface antigen present on the motor neurons. Secondary antibodies coupled with magnetic balls are added and the mixture of cells is passed through a column in a magnet (Arce et al., 1999). Only the motor neurons are retained: their purity is of the order of 90%.
The motor neurons are inoculated at low density in culture wells on a substrate of polyornithine-laminin in a neurobasal medium supplemented according to Raoul et al., 1999, Programmed cell death of embryonic motor neurons triggered through the Fas death receptor. […] Negative controls (absence of trophic factors) and positive controls (in the presence of BDNF (Brain-Derived Neurotrophic Factor) at 1 ng/ml, GDNF (Glial-Derived Neurotrophic Factor) at 1 ng/ml and CNTF (Ciliary Neurotrophic Factor) at 10 ng/ml, marketed by the American company PEPROTECH, Inc. and the Sigma-Aldrich company, are included in each series.
The compounds to be tested are added 60 minutes after the inoculation and the cultures are maintained at 37° C. under 5% CO2 for 3 days.
After 3 days, the survival is evaluated by a fluorescence measurement after incubation of the cells in the presence of calcein which becomes fluorescent in the living cells.
The activity of the compounds to be tested was evaluated according to their capacity to prevent the death of the motor neurons when they are added to the neurobasal medium compared with the survival of the motor neurons in medium supplemented with neurotrophic factors.
This survival rate is expressed by a number, the ratio.

[5] = toxicological study in mice; format: in vivo; conditions: oral, sub-cutaneous, intra-peritoneal and intravenous routes, up to 300 mg/kg/day, daily up to 28 days

## CC(C)CCC[C@@H](C)[C@H]1CC[C@H]2[C@@H]3CCC4=CC(=NO)CC[C@]4(C)[C@H]3CC[C@]12C [Compound 1, Cholest-4-en-3-one oxime]
[1]
  Ratio (survival of striatal neurons): 0.3
[2]
  increase of survival of the motor neurons of the nucleus of the facial nerve: up to 40%
[3]; allopregnanolone or tetrahydrodeoxycorticosterone as modulators, dose-dependent, concentrations equivalent to those with neurotrophic effects in vitro
  blocking of the effect of positive allosteric modulators of the GABAA receptors: capable of blocking
[3]; tested alone up to 10 μM, slice of hippocampus or sensitive neurons
  effect on the GABAA receptors, compound alone: no effect
[4]; 5 μM
  Ratio (survival rate of the motor neurons): 1
[5]
  toxicity: did not show significant toxicity

## CC(C)CCC[C@@H](C)[C@H]1CC[C@H]2[C@@H]3CCC4=CC(=NO)C=C[C@]4(C)[C@H]3CC[C@]12C [Compound 2, 1,4-cholestadien-3-one oxime]
[4]; 5 μM
  Ratio (survival rate of the motor neurons): 0.6

## CC(C)=CCC[C@@H](C)[C@H]1CC[C@H]2[C@@H]3CCC4=CC(=O)CC[C@]4(C)[C@H]3CC[C@]12C [Compound 4, Cholest-4,24-dien-3-one]
[1]
  Ratio (survival of striatal neurons): 0.2

## CC(C)=CCC[C@@H](C)[C@H]1CC[C@H]2[C@@H]3CCC4=CC(=NO)CC[C@]4(C)[C@H]3CC[C@]12C [Compound 6, 4,24-cholestadien-3-one oxime]
[4]; 5 μM
  Ratio (survival rate of the motor neurons): 0.5

## CC(C)CC=C[C@@H](C)[C@H]1CC[C@H]2[C@@H]3CCC4=CC(=NO)CC[C@]4(C)[C@H]3CC[C@]12C [Compound 7, 4,22-cholestadien-3-one oxime]
[4]; 6 μM
  Ratio (survival rate of the motor neurons): 0.25

## CC[C@H](CC[C@@H](C)[C@H]1CC[C@H]2[C@@H]3CCC4=CC(=NO)CC[C@]4(C)[C@H]3CC[C@]12C)C(C)C [Compound 8, 4-stigmasta-ene-3-one oxime]
[4]; 10 μM
  Ratio (survival rate of the motor neurons): 0.3

## CC(C)CCC[C@@H](C)[C@H]1CC[C@H]2[C@@H]3CC[C@]4(O)CC(=O)CC[C@]4(C)[C@H]3CC[C@]12C [Compound 9, 5-beta-hydroxy-cholestan-3-one]
[1]
  Ratio (survival of striatal neurons): 0.5
[4]; 1 μM
  Ratio (survival rate of the motor neurons): 0.5

## CC(C)CCC[C@@H](C)[C@H]1CC[C@H]2[C@@H]3C=C[C@H]4CC(=O)CC[C@]4(C)[C@H]3CC[C@]12C [Compound 11, 5-alpha-cholest-6-en-3-one]
[1]
  Ratio (survival of striatal neurons): 0.3

## CC(C)C(C)C=C[C@@H](C)[C@H]1CC[C@H]2[C@@H]3C=CC4=CC(=O)CC[C@]4(C)[C@H]3CC[C@]12C (stereo partly shown) [Compound 12, 24-methylcholest-4,6,22-trien-3-one]
[1]
  Ratio (survival of striatal neurons): 0.3

## CC(C)[C@@H](C)C=C[C@@H](C)[C@H]1CC[C@H]2[C@@H]3C=CC4=CC(=NO)CC[C@]4(C)[C@H]3CC[C@]12C [Compound 15, 4.6, 22-ergosta-trien-3-one oxime]
[4]; 5 μM
  Ratio (survival rate of the motor neurons): 0.2

## CC(C)CCC[C@@H](C)[C@H]1CC[C@H]2[C@@H]3C=CC4=CC(=NO)C=C[C@]4(C)[C@H]3CC[C@]12C [Compound 17, 1.4,6-cholesta-trien-3-one oxime]
[4]; 5 μM
  Ratio (survival rate of the motor neurons): 0.3

## CC(=O)[C@H]1CC[C@H]2[C@@H]3CC[C@H]4C[C@H](O)CC[C@]4(C)[C@H]3CC[C@]12C [allopregnanolone, 3α-hydroxy-5α-pregnan-20-one]
[3]; sensitive neurons, patch-clamp
  effect on chlorine currents produced by isoguvacine: potentialized
[3]
  effect on the stimulating GABAA transmission (postsynaptic field potentials, CA1): potentialized

## CN1C(=O)CN=C(c2ccccc2)c2cc(Cl)ccc21 [diazepam]
[3]
  effect on the stimulating GABAA transmission (postsynaptic field potentials, CA1): potentialized

## C[C@]12CC[C@@H](O)C[C@@H]1CC[C@@H]1[C@@H]2CC[C@]2(C)[C@@H](C(=O)CO)CC[C@@H]12 [tetrahydrodeoxycorticosterone]
[3]
  effect on the stimulating GABAA transmission (postsynaptic field potentials, CA1): potentialized

## picrotoxin
[3]
  effect on the stimulating GABAA transmission (postsynaptic field potentials, CA1): blocked
